In patent US20230047825A1, “ANTIMICROBIAL PEPTIDES” (priority 2019, published 2023):
Converted amounts (≈) assume the structure as drawn. Read-outs that look alike come from different tables or passages of the source.

What was measured:
Experiment in all cases: microbe, parasite or virus in culture
[1] = tested on: Staphylococcus aureus ATCC 33591 (MRSA); details: for MIC: Staphylococcus aureus
Description: (§1) The S. aureus strains ATCC 29213, ATCC 19636, ATCC 33591 (MRSA), BAA-1556 (MRSA USA 300) were obtained from the American Type Culture Collection (ATCC). […] The species identity was confirmed with 16S rRNA analysis.
(§2) Two broth mediums were used, Mueller Hinton Broth and RPMI 1640+5% fetal bovine serum. Test substances were evaluated in 11-point titrations and performed in duplicate.
(§3) The direct colony suspension method was used to prepare inoculated broth. Isolated colonies were taken from an 18-24 h culture plate. Optical density measurements (OD620nm) were used to estimate the bacterial density. […] The stock solutions were diluted by 2-fold serial titrations with their respective vehicles for a total of 11 concentrations.
(§4) A 4 μL aliquot of each dilution was added to 196 μL of broth medium seeded with the organism in wells of a sterilized 96 well polypropylene plate (Nunc™ 249949) using aluminum foil as cover. The final bacterial count was 2 to 8×10^5 CFU/mL. […] The final test article concentration range was 32 to 0.0313 μg/mL.
(§5) Each test substance dilution was evaluated in duplicate on one test occasion. […] Plates were incubated at 35-37° C. for 18 h. The test plates were visually examined and each well was visually scored for growth or complete inhibition of growth. The MIC value was recorded.

[2] = tested on: Staphylococcus aureus ATCC 29213; details: for MIC: Staphylococcus aureus; for susceptibility category (CLSI M100 interpretive criteria) / MIC, antibiotic susceptibility: ATCC 29213
Description: as §1, §2, §3, §4, §5

[3] = tested on: Staphylococcus aureus ATCC 19636 (Smith)
Description: as §1, §2, §3, §4, §5

[4] = tested on: Staphylococcus aureus ATCC BAA-1556 (USA300, MRSA)
Description: as §1, §2, §3, §4, §5

[5] = tested on: Staphylococcus aureus VRS-2 (VanA, VRSA); set-up: MIC, antibiotic susceptibility: unit not given beside the values; details: for MIC: Staphylococcus aureus, VRSA; for MIC, antibiotic susceptibility: unit not given
Description: as §1, §2, §3, §4, §5

[6] = ATCC33591|MRSA, 18 h, read-out: MIC, antibiotic susceptibility, ATCC 33591, CLSI M7-A10, unit inferred
[7] = ATCC29213, 18 h, read-out: MIC, antibiotic susceptibility, ATCC 29213, CLSI M7-A10, unit inferred
[8] = Staphylococcus aureus, ATCC19636, 18 h, read-out: MIC, antibiotic susceptibility
[9] = Staphylococcus aureus, ATCCBAA1556|BAA1556|MRSA|USA300, 18 h, read-out: MIC, antibiotic susceptibility
[10] = 18 h, read-out: MIC, antibiotic susceptibility, VRS-2, CLSI M7-A10, unit inferred

Compound	MIC [1, 6] [µg/mL]	MIC [2, 7] [µg/mL]	MIC [3, 8] [µg/mL]	MIC [4, 9] [µg/mL]	MIC [5, 10] [µg/mL]	susceptibility category (CLSI M100 interpretive criteria) ([1]; ATCC 33591)	susceptibility category (CLSI M100 interpretive criteria) [2]	susceptibility category (CLSI M100 interpretive criteria) ([3]; ATCC 19636 (Smith))	susceptibility category (CLSI M100 interpretive criteria) ([4]; BAA-1556)	susceptibility category (CLSI M100 interpretive criteria) ([5]; VRS-2)	other results
CO/N=C(\C(=O)N[C@@H]1C(=O)N2C(C(=O)[O-])=C(C[N+]3(C)CCCC3)CS[C@H]12)c1csc(N)n1 [Cefepime]	> 64	2 to 4 (≈ 4.16 to 8.32 µM)	2 (≈ 4.16 µM)	16 to 64 (≈ 33.3 to 133 µM)	> 64						
CO/N=C(\C(=O)N[C@@H]1C(=O)N2C(C(=O)O)=C(CSc3nc(=O)c(=O)[nH]n3C)CS[C@H]12)c1csc(N)n1 [Ceftriaxone]	> 64	4 (≈ 7.21 µM)	4 (≈ 7.21 µM)	≥ 64	> 64						
CCC[C@@H]1C[C@@H](C(=O)N[C@@H]([C@H]2O[C@H](SC)[C@H](O)[C@@H](O)[C@H]2O)[C@H](C)Cl)N(C)C1 [Clindamycin]	> 64	0.125 (≈ 0.294 µM)	0.125 (≈ 0.294 µM)	> 64	> 64	R	S	S	R	R	
CCCCCCCCCC(=O)N[C@@H](Cc1c[nH]c2ccccc12)C(=O)N[C@H](CC(N)=O)C(=O)N[C@@H](CC(=O)O)C(=O)N[C@@H]1C(=O)NCC(=O)N[C@@H](CCCN)C(=O)N[C@@H](CC(=O)O)C(=O)N[C@H](C)C(=O)N[C@@H](CC(=O)O)C(=O)NCC(=O)N[C@H](CO)C(=O)N[C@@H]([C@H](C)CC(=O)O)C(=O)N[C@@H](CC(=O)c2ccccc2N)C(=O)O[C@@H]1C [Daptomycin]	0.5 (≈ 0.309 µM)	0.125 to 0.5 (≈ 0.0771 to 0.309 µM)	0.25 (≈ 0.154 µM)	0.25 (≈ 0.154 µM)	0.25 (≈ 0.154 µM)	S	S	S	S	S	
CC[C@H]1OC(=O)[C@H](C)[C@@H](O[C@H]2C[C@@](C)(OC)[C@@H](O)[C@H](C)O2)[C@H](C)[C@@H](O[C@@H]2O[C@H](C)C[C@H](N(C)C)[C@H]2O)[C@](C)(O)C[C@@H](C)C(=O)[C@H](C)[C@@H](O)[C@]1(C)O [Erythromycin]	> 64	0.25 to 1 (≈ 0.341 to 1.36 µM)	0.25 to 1 (≈ 0.341 to 1.36 µM)	> 64	> 64	R	S-I	S-I	R	R	
C[C@@H](O)[C@H]1C(=O)N2C(C(=O)O)=C(SCCN=CN)C[C@H]12 [Imipenem]	≥ 16	0.016 to 0.031 (≈ 0.0534 to 0.104 µM)	≤ 0.016	0.125 to 0.25 (≈ 0.418 to 0.835 µM)	> 16						
C[C@H]1COc2c(N3CCN(C)CC3)c(F)cc3c(=O)c(C(=O)O)cn1c23 [Levofloxacin]	0.25 (≈ 0.692 µM)	0.125 to 0.25 (≈ 0.346 to 0.692 µM)	0.125 (≈ 0.346 µM)	4 to 8 (≈ 11.1 to 22.1 µM)	32 (≈ 88.6 µM)	S	S	S	R	R	
CC(=O)NC[C@H]1CN(c2ccc(N3CCOCC3)c(F)c2)C(=O)O1 [Linezolid]	0.5 to 1 (≈ 1.48 to 2.96 µM)	2 to 4 (≈ 5.93 to 11.9 µM)	2 to 4 (≈ 5.93 to 11.9 µM)	2 (≈ 5.93 µM)	2 (≈ 5.93 µM)	S	S	S	S	S	MIC ([1]; ATCC 33591, MHB): 2 µg/mL (≈ 5.93 µM); MIC ([1]; ATCC 33591, RPMI + 5% FBS): 1 µg/mL; MIC ([2]; ATCC29213, ATCC 29213, MHB): 4 µg/mL (≈ 11.9 µM); MIC ([2]; ATCC29213, ATCC 29213, RPMI + 5% FBS): 2 µg/mL; MIC ([3]; ATCC 19636 (Smith), MHB): 2 µg/mL (≈ 5.93 µM); MIC ([4]; ATCC BAA-1556, MHB): 2 µg/mL (≈ 5.93 µM); MIC ([5]; VRS-2, MHB): 2 µg/mL (≈ 5.93 µM); MIC ([5]; VRS-2, RPMI + 5% FBS): 1 µg/mL
C[C@@H](O)[C@H]1C(=O)N2C(C(=O)O)=C(S[C@@H]3CN[C@H](C(=O)N(C)C)C3)[C@H](C)[C@H]12 [Meropenem]		0.0625 (≈ 0.163 µM)									
C/C(=C\C(=O)OCCCCCCCCC(=O)O)C[C@@H]1OC[C@H](C[C@@H]2O[C@H]2[C@@H](C)[C@H](C)O)[C@@H](O)[C@H]1O [Mupirocin]	1 to 2 (≈ 2 to 3.99 µM)	0.25 to 2 (≈ 0.499 to 3.99 µM)	1 (≈ 2 µM)	> 64	1 to 2 (≈ 2 to 3.99 µM)						
Cc1onc(-c2ccccc2)c1C(=O)N[C@@H]1C(=O)N2[C@@H]1SC(C)(C)[C@@H]2C(=O)O [Oxacillin]	> 64	0.25 to 0.5 (≈ 0.623 to 1.25 µM)	0.25 (≈ 0.623 µM)	64 (≈ 159 µM)	> 64	R	S	S	R	R	
CN(C)c1cc(NC(=O)CNC(C)(C)C)c(O)c2c1C[C@H]1C[C@H]3[C@H](N(C)C)C(O)=C(C(N)=O)C(=O)[C@@]3(O)C(O)=C1C2=O [Tigecycline]			0.125 to 0.25 (≈ 0.213 to 0.427 µM)	0.25 (≈ 0.427 µM)							MIC ([1]; ATCC33591|MRSA, 18 h, read-out: MIC, antibiotic susceptibility): 0.25 to 0.5 µg/mL (≈ 0.427 to 0.854 µM); MIC ([2]; ATCC29213, 18 h, read-out: MIC, antibiotic susceptibility): 0.125 to 0.25 µg/mL (≈ 0.213 to 0.427 µM); MIC ([5]; 18 h, read-out: MIC, antibiotic susceptibility): 0.25 µg/mL (≈ 0.427 µM)
Gentamicin						S	S	S	S	R	MIC, antibiotic susceptibility ([1]; ATCC 33591, CLSI M7-A10, unit not given, in µg/mL): 0.25-1; MIC, antibiotic susceptibility ([2]; CLSI M7-A10, unit inferred): 0.25 µg/mL; MIC, antibiotic susceptibility ([3]; ATCC 19636 (Smith), CLSI M7-A10, unit inferred): 0.25 µg/mL; MIC, antibiotic susceptibility ([4]; BAA-1556, CLSI M7-A10, unit not given, in µg/mL (unit assumed)): 0.25-0.5; MIC, antibiotic susceptibility ([5]; VRS-2, CLSI M7-A10, in µg/mL (unit assumed)): 32-64
Teicoplanin							S				MIC, antibiotic susceptibility ([2]; CLSI M7-A10, unit inferred): 0.25 µg/mL
Trimethoprim/sulfamethoxazole						S	S	S	S	R	MIC, antibiotic susceptibility ([5]; VRS-2, CLSI M7-A10): >8/152
